Test results taken from PubChem BioAssay (NCI).
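How tested: cells in 96-well plates exposed to compound for 48 hours at five concentrations. TGI: concentration producing complete growth inhibition.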

What was measured:
Test in all cases: DTP human tumour cell line panel, 48 h
[1] = tested on: HT29 colon
[2] = tested on: TK-10 renal
[3] = tested on: CAKI-1 renal
[4] = tested on: SR leukemia
[5] = tested on: HCT-15 colon
[6] = tested on: MALME-3M melanoma
[7] = tested on: HCC-2998 colon
[8] = tested on: K-562 leukemia
[9] = tested on: UACC-257 melanoma
[10] = tested on: PC-3 prostate
[11] = tested on: CCRF-CEM leukemia

Measured: TGI

CC(C)(C)NN=C1C(C)(C)C(=NNC(C)(C)C)C1(C)C
not listed: [10] | [11]
> 100 µM: all other assays above

CC1(C2(C)OC(=O)c3ccccc32)OC(=O)c2ccccc21 (stereo not drawn)
not listed: [6] | [8] | [11]
> 100 µM: all other assays above

O=c1[nH]c(=O)n(C2CC(O)C(CO)O2)cc1OCCCc1ccccc1 (stereo not drawn)
not listed: [4] | [7]
> 100 µM: all other assays above

Cc1cccc2c1Oc1ccccc1C2NC(=O)c1ccc([N+](=O)[O-])cc1 (stereo not drawn)
not listed: [7]
> 100 µM: all other assays above

Cn1c(=O)cc(NCc2ccc(Cl)cc2)[nH]c1=O
not listed: [4] | [11]
> 100 µM: all other assays above

CC1=C2c3c(C)ccc4ccc(C)c(c34)C2(O)C(C)C1=O (stereo not drawn)
not listed: [6] | [11]
> 100 µM: all other assays above

COC1=CC(=O)[C@H]2[C@H](C)C(c3ccccc3)[C@@]2(C)C1=O (stereo partly drawn)
not listed: [9] | [10]
> 100 µM: all other assays above

COc1cccc(NC(=S)Nn2c(C)nc3ccccc3c2=O)c1
not listed: [7] | [10]
> 100 µM: all other assays above

COC(=O)C(O)P(=O)(OC)OC (stereo not drawn)
not listed: [2] | [7] | [11]
> 100 µM: all other assays above

OC12COc3ccccc3C1Oc1ccccc1C2 (stereo not drawn)
not listed: [4]
> 100 µM: all other assays above

CCCn1c(SCC)c2ccccc2c1-c1nc(F)nc(F)n1
not listed: [9] | [10]
> 100 µM: all other assays above

CC(N)C(C)Cc1ccccc1 (stereo not drawn)
not listed: [4] | [11]
> 100 µM: all other assays above
